In US20170143674A1, “Use of Glutaryl Histamine for the Treatment of Respiratory Tract Diseases” (LTD "VALENTA-INTELLEKT", priority 2011, published 2017):

Columns and labels:
[1] = tested on: Staphylococcus aureus (mouse-adapted MRSA strain 5); test: animal or person; format: in vivo, mice
Protocol: (§1) Tested medicament was glutaryl histamine in doses of 15, 30 and 45 mg/kg. Solutions of the tested medicament for oral administration were prepared ex tempore in stream water. Ampicillin (in intravenous administration) was used as a therapeutic preparation since it is the most experimentally studied antibiotic approved in clinical practice many years ago. Levofloxacin was used as a positive control (in oral administration).
Staphylococcus aureus was used as an infectious agent (mouse-adapted MRSA strain 5, collection from GU NIINA im.G.F. Gauze RAMN).
Firstly, there was determined a lethal dose (LD100) of staphylococcus when intravenously administered to this line of mice with a certain weight. Fatal cases among mice were registered every day for ten days. […] After that, there was determined the dose of ampicillin providing a survival rate of 20% of mice infected with staphylococcus MRSA taken in a lethal dose. For this purpose, mice were housed into cages by 10 animals and infected with a lethal dose of staphylococcus. One hour later, each mouse was intravenously administered ampicillin in doses of 30, 60, 90, 120, 150, and 180 mg/kg. A group of mice infected with a lethal dose of staphylococcus without the treatment was considered as a control group. Fatal cases among mice were registered every day for ten days.
The next step of the experiment was to study an effect of combined administration of glutaryl histamine with ampicilline on a model of MRSA-induced staphylococcal sepsis in mice.
In the experiment, the mice were housed in following groups of 10 animals per cage: […]

[2] = tested on: Staphylococcus aureus (mouse-adapted strain 10); test: animal or person; format: in vivo, mice
Protocol: as §1, with “The tested” for “Tested”, “tempore.” for “tempore in stream water.”, “this substance was” for “it is”, “ago.” for “ago. Levofloxacin was used as a positive control (in oral administration).”
Staphylococcus aureus (mouse-adapted strain 10) was used as an infectious agent. Mice were infected intravenously.
Firstly, there was determined a lethal dose (LD100) of staphylococcus when intravenously administered to this line of mice with a certain weight. Fatal cases among mice were registered every day for ten days. The lethal dose was 3×10^8 CFU/mouse. […] For this purpose, mice were housed into cages (10 animals per cage) and infected with a lethal dose of staphylococcus. One hour later, each mouse was intravenously administered ampicillin in doses of 10, 20, 30, 40, and 50 mg/kg. A group of mice infected with a lethal dose of staphylococcus without the treatment was considered as a control group. Fatal cases among mice were registered every day for ten days.
The next step of the experiment was to study an effect of combined administration of glutaryl histamine with ampicillin on a model of staphylococcal sepsis in mice.
In the experiment, mice were housed in following groups (10 animals per cage):
Glutaryl histamine was administered orally in the corresponding doses to mice of groups 3, 4, 5, 6, 7, and 8 for 5 days. Five day after, all groups of mice were intravenously administered 0.2 ml of Staphylococcus aureus in the lethal dose. One hour after infection, mice of groups 2, 6, 7 and 8 were […] administered 0.2 ml of ampicillin in a dose of 20 mg/kg. After infection and administration of ampicillin, mice of groups 3-8 were administered glutaryl histamine for additional 5 days. During the experiment, the animals were observed every day, and fatal cases were registered.

[3] = group 2: ampicillin 120 mg/ml i.v. one time

In the case of CC1(C)S[C@@H]2[C@H](NC(=O)[C@H](N)c3ccccc3)C(=O)N2[C@H]1C(=O)O [ampicillin], the “Survival rate (%)” value ([1]; ampicillin 30 mg/kg + LD100 St.a., day 10) is reported as 0%, the “Survival rate (%)” value ([1]; ampicillin 60 mg/kg + LD100 St.a., day 10) is reported as 0% and the “Survival rate (%)” value ([1]; ampicillin 90 mg/kg + LD100 St.a., day 10) is reported as 10%. For the same compound, the “Survival rate (%)” value ([1]; ampicillin 120 mg/kg + LD100 St.a., day 10) was 20%, the “Survival rate (%)” value ([1]; ampicillin 150 mg/kg + LD100 St.a., day 10) was 20% and the “Survival rate (%)” value ([1]; ampicillin 180 mg/kg + LD100 St.a., day 10) was 20%. The died/survived animals ([1]; day 1, ampicillin 30 mg/kg + LD100 St.a.) was 0/10, the died/survived animals ([1]; day 1, ampicillin 60 mg/kg + LD100 St.a.) was 0/10 and the died/survived animals ([1]; day 1, ampicillin 90 mg/kg + LD100 St.a.) was 0/10. The died/survived animals ([1]; day 1, ampicillin 120 mg/kg + LD100 St.a.) was 0/10, the died/survived animals ([1]; day 1, ampicillin 150 mg/kg + LD100 St.a.) was 0/10 and the died/survived animals ([1]; day 1, ampicillin 180 mg/kg + LD100 St.a.) was 0/10. For the same compound, the died/survived animals ([1]; day 1, group 2: ampicillin 120 mg/ml i.v. one time) was 0/10, the died/survived animals ([1]; day 2, ampicillin 30 mg/kg + LD100 St.a.) was 1/9 and the died/survived animals ([1]; day 2, ampicillin 60 mg/kg + LD100 St.a.) was 0/10. For the same compound, the died/survived animals ([1]; day 2, ampicillin 90 mg/kg + LD100 St.a.) was 0/10, the died/survived animals ([1]; day 2, ampicillin 120 mg/kg + LD100 St.a.) was 0/10 and the died/survived animals ([1]; day 2, ampicillin 150 mg/kg + LD100 St.a.) was 0/10. The died/survived animals ([1]; day 2, ampicillin 180 mg/kg + LD100 St.a.) was 0/10, the died/survived animals ([1]; day 2, group 2: ampicillin 120 mg/ml i.v. one time) was 0/10 and the died/survived animals ([1]; day 3, ampicillin 30 mg/kg + LD100 St.a.) was 3/7. The died/survived animals ([1]; day 3, ampicillin 60 mg/kg + LD100 St.a.) was 2/8, the died/survived animals ([1]; day 3, ampicillin 90 mg/kg + LD100 St.a.) was 1/9 and the died/survived animals ([1]; day 3, ampicillin 120 mg/kg + LD100 St.a.) was 1/9. For the same compound, the died/survived animals ([1]; day 3, ampicillin 150 mg/kg + LD100 St.a.) was 0/10, the died/survived animals ([1]; day 3, ampicillin 180 mg/kg + LD100 St.a.) was 0/10 and the died/survived animals ([1]; day 3, group 2: ampicillin 120 mg/ml i.v. one time) was 1/9. For the same compound, the died/survived animals ([1]; day 4, ampicillin 30 mg/kg + LD100 St.a.) was 6/4, the died/survived animals ([1]; day 4, ampicillin 60 mg/kg + LD100 St.a.) was 4/6 and the died/survived animals ([1]; day 4, ampicillin 90 mg/kg + LD100 St.a.) was 3/7. For the same compound, the died/survived animals ([1]; day 4, ampicillin 120 mg/kg + LD100 St.a.) was 4/6, the died/survived animals ([1]; day 4, ampicillin 150 mg/kg + LD100 St.a.) was 3/7 and the died/survived animals ([1]; day 4, ampicillin 180 mg/kg + LD100 St.a.) was 2/8. The died/survived animals ([1]; day 4, group 2: ampicillin 120 mg/ml i.v. one time) was 2/8, the died/survived animals ([1]; day 5, ampicillin 30 mg/kg + LD100 St.a.) was 8/2 and the died/survived animals ([1]; day 5, ampicillin 60 mg/kg + LD100 St.a.) was 6/4. For the same compound, the died/survived animals ([1]; day 5, ampicillin 90 mg/kg + LD100 St.a.) was 5/5, the died/survived animals ([1]; day 5, ampicillin 120 mg/kg + LD100 St.a.) was 6/4 and the died/survived animals ([1]; day 5, ampicillin 150 mg/kg + LD100 St.a.) was 5/5. For the same compound, the died/survived animals ([1]; day 5, ampicillin 180 mg/kg + LD100 St.a.) was 4/6, the died/survived animals ([1]; day 5, group 2: ampicillin 120 mg/ml i.v. one time) was 3/7 and the died/survived animals ([1]; day 6, ampicillin 30 mg/kg + LD100 St.a.) was 9/1. For the same compound, the died/survived animals ([1]; day 6, ampicillin 60 mg/kg + LD100 St.a.) was 8/2, the died/survived animals ([1]; day 6, ampicillin 90 mg/kg + LD100 St.a.) was 7/3 and the died/survived animals ([1]; day 6, ampicillin 120 mg/kg + LD100 St.a.) was 7/3. For the same compound, the died/survived animals ([1]; day 6, ampicillin 150 mg/kg + LD100 St.a.) was 7/3, the died/survived animals ([1]; day 6, ampicillin 180 mg/kg + LD100 St.a.) was 6/4 and the died/survived animals ([1]; day 6, group 2: ampicillin 120 mg/ml i.v. one time) was 5/5. The died/survived animals ([1]; day 7, ampicillin 30 mg/kg + LD100 St.a.) was 10/0, the died/survived animals ([1]; day 7, ampicillin 60 mg/kg + LD100 St.a.) was 9/1 and the died/survived animals ([1]; day 7, ampicillin 90 mg/kg + LD100 St.a.) was 8/2. The died/survived animals ([1]; day 7, ampicillin 120 mg/kg + LD100 St.a.) was 8/2, the died/survived animals ([1]; day 7, ampicillin 150 mg/kg + LD100 St.a.) was 7/3 and the died/survived animals ([1]; day 7, ampicillin 180 mg/kg + LD100 St.a.) was 7/3. For the same compound, the died/survived animals ([1]; day 7, group 2: ampicillin 120 mg/ml i.v. one time) was 6/4, the died/survived animals ([1]; day 8, ampicillin 30 mg/kg + LD100 St.a.) was 10/0 and the died/survived animals ([1]; day 8, ampicillin 60 mg/kg + LD100 St.a.) was 10/0. The died/survived animals ([1]; day 8, ampicillin 90 mg/kg + LD100 St.a.) was 9/1, the died/survived animals ([1]; day 8, ampicillin 120 mg/kg + LD100 St.a.) was 8/2 and the died/survived animals ([1]; day 8, ampicillin 150 mg/kg + LD100 St.a.) was 8/2. For the same compound, the died/survived animals ([1]; day 8, ampicillin 180 mg/kg + LD100 St.a.) was 7/3, the died/survived animals ([1]; day 8, group 2: ampicillin 120 mg/ml i.v. one time) was 7/3 and the died/survived animals ([1]; day 9, ampicillin 30 mg/kg + LD100 St.a.) was 10/0. The died/survived animals ([1]; day 9, ampicillin 60 mg/kg + LD100 St.a.) was 10/0, the died/survived animals ([1]; day 9, ampicillin 90 mg/kg + LD100 St.a.) was 9/1 and the died/survived animals ([1]; day 9, ampicillin 120 mg/kg + LD100 St.a.) was 8/2. For the same compound, the died/survived animals ([1]; day 9, ampicillin 150 mg/kg + LD100 St.a.) was 8/2, the died/survived animals ([1]; day 9, ampicillin 180 mg/kg + LD100 St.a.) was 8/2 and the died/survived animals ([1]; day 9, group 2: ampicillin 120 mg/ml i.v. one time) was 8/2. The died/survived animals ([1]; day 10, ampicillin 30 mg/kg + LD100 St.a.) was 10/0, the died/survived animals ([1]; day 10, ampicillin 60 mg/kg + LD100 St.a.) was 10/0 and the died/survived animals ([1]; day 10, ampicillin 90 mg/kg + LD100 St.a.) was 9/1. The died/survived animals ([1]; day 10, ampicillin 120 mg/kg + LD100 St.a.) was 8/2, the died/survived animals ([1]; day 10, ampicillin 150 mg/kg + LD100 St.a.) was 8/2 and the died/survived animals ([1]; day 10, ampicillin 180 mg/kg + LD100 St.a.) was 8/2. The died/survived animals ([1]; day 10, group 2: ampicillin 120 mg/ml i.v. one time) was 8/2, the “Mortality rate (%)” value [1, 3] was 80% and the “Survival rate (%)” value [1, 3] was 20%. The ED50 ([2]; Staphylococcus aureus, iv, read-out: ED50 (50% effective dose)) was 17.3 mg/kg, the “Mortality rate (%)” value ([2]; ampicillin 20 mg/kg, tenth day) was 50% and the “Survival rate (%)” value ([2]; ampicillin 20 mg/kg, tenth day) was 50%. For the same compound, the died/survived animals ([2]; day 1, ampicillin 20 mg/kg) was 0/10, the died/survived animals ([2]; day 2, ampicillin 20 mg/kg) was 0/10 and the died/survived animals ([2]; day 3, ampicillin 20 mg/kg) was 0/10. The died/survived animals ([2]; day 4, ampicillin 20 mg/kg) was 1/9, the died/survived animals ([2]; day 5, ampicillin 20 mg/kg) was 2/8 and the died/survived animals ([2]; day 6, ampicillin 20 mg/kg) was 3/7. The died/survived animals ([2]; day 7, ampicillin 20 mg/kg) was 4/6, the died/survived animals ([2]; day 8, ampicillin 20 mg/kg) was 4/6 and the died/survived animals ([2]; day 9, ampicillin 20 mg/kg) was 5/5. The died/survived animals ([2]; day 10, ampicillin 20 mg/kg) was 5/5.
